Test results from patent EP3685668B1, “COMPOSITION COMPRISING ACIBENZOLAR-S-METHYL AS EFFECTIVE INGREDIENT FOR CONTROLLING BURSAPHELENCHUS XYLOPHILUS DISEASE AND METHOD FOR CONTROLLING BURSAPHELENCHUS XYLOPHILUS USING SAME” (Industry Foundation of Chonnam National University, priority 2017, dated 2019).

Columns and labels:
[1] = system: Bursaphelenchus xylophilus; assay: Occurrence of pine wilt disease after trunk injection of induced resistance candidate materials, in vivo test in young red pine trees; conditions: red pine tree (Pinus densiflora), 30 days after inoculation; for Occurrence rate of pine wilt disease: Number of pine trees showing wilt symptoms / Number of pine trees used for the test: trunk injection 100 µℓ per tree; for Number of pine trees showing wilt symptoms only at growing points of a stem: trunk injection
Protocol: By using the 15 types of an induced resistance elicitors which have been known to induce the plant resistance against various diseases as candidates, their controlling effect against pine wilt disease was examined. The control efficacy of candidates against pine wilt disease was analyzed according to an in vivo test using red pine tree (Pinus densiflora) which was 2-year old young pine trees (diameter of 5.5 mm or so, and height of about 35 mm).
As a candidate group of an induced resistance material, two kinds of acibenzolar-S-methyl (ASM), TDL (Tiadinil), ITL (Isotianil), PBZ (Probenzole), AZO (Azoxystrobin), VMA (Validamycin A), MeJA (Methyl jasmonate), BABA (DL-3-aminobutyric acid), 2,3-BDO (2,3-Butanediol), SA (salicyclic acid), GABA (r-Aminobutyric acid), glucan (Glucan), ER (Ergosterol), and AZA (Azelaic acid) were used. Only the use of acibenzolar-S-methyl is according to the invention. Injection of the chemicals was carried out by trunk injection method, i.e., at an angle of 45°, a borehole was created by using an electric drill with thickness of 1.5 mm on a pine stem part that is 5 to 10 cm above the soil surface, a tip (200 µℓ) was inserted to the hole, and, after dissolving the candidate material at concentration level of 200, 20, or 2 µg/mℓ in each solvent, the solution was injected in an amount of 100 µℓ per pine tree. After the injection of the chemical agent, the end part of the tip was sealed with parafilm.
The pine tree wilt nematodes (Bursaphelenchus xylophilus, National Institute of Forest Science (NIFoS), South Korea) was incubated at 25°C by feeding them with Botrytis cinerea, which have been cultured on a potato dextrose agar (PDA) medium, and after one week incubation, they were collected by Baermann funnel method and were adjusted to the level of 20,000 worms/mℓ by examining the number of the worms under an optical microscope. One week after the chemical treatment, the inoculation of the pine tree wilt nematodes was carried out by tree barking inoculation of 100 µℓ, i.e., 2,000 worms, per tree, and the result was determined 30 days after the inoculation. […] [Table 1] Occurrence rate of pine wilt disease in candidate group of induced resistance materials

Cytochrome_P450 = assay: qRT-PCR expression of induced resistance gene in pine tree callus; type: cell-based; conditions: 200 µg/mℓ, 24 hours
Protocol: For in vitro analysis of induced resistance, the expression of PR genes and other plant defense-related genes was determined, which are evolved in various defense mechanisms including induced resistance. The primers of sixteen induced resistance-related genes of pine tree used in this invention were listed in the below and elongation factor_1 alpha were used as a reference gene. […] The primer list of defense resistance-related genes
After the treatment with 200 µg / mℓ of candidates of the selected induced resistance material, expression of the induced resistance-related gene in pine callus was determined by qRT-PCR using the primer pairs of defense resistance-related genes in Table 4. As a candidate group of an induced resistance material in pine tree, acibenzolar-S-methyl (ASM), TDL (Tiadinil), ITL (Isotianil), PBZ (Probenzole), AZO (Azoxystrobin), VMA (Validamycin A), MeJA (Methyl jasmonate), BABA (DL-3-aminobutyric acid), 2,3-BDO (2,3-Butanediol), GABA (r-Aminobutyric acid), glucan (Glucan), ER (Ergosterol), and AZA (Azelaic acid) were used. For the in vitro analysis of the expression of induced resistance gene in pine callus, the selected induced resistance materials were applied with 500 µℓ of LM liquid medium on a surface of pine tree callus (100 mg) in 12-well microplate to give final concentration of 200 µg/mℓ. Then, the callus surface was sufficiently reacted for 24 hours with the candidate of pine tree induced resistance material by shaking at 50 rpm in a 25 °C shaking incubator under dark condition. RNAs were extracted from the callus after completion of the reaction with an induced resistance material, followed by synthesis of cDNAs. Then, by carrying out qRT-PCR, the expression of induced resistance genes was determined.
Thus, the following tests were carried out using acibenzolar-S-methyl only. Expression of the induced resistance genes at different culture time after the chemical treatment was examined. For the in vitro assay, LM medium containing pine tree callus was treated with acibenzolar-S-methyl at concentration of 200 µg / mℓ, followed by reaction for 1 day, 7 days, or 14 days in a 25°C shaking incubator under dark condition. RNAs were extracted from the callus after the reaction followed by synthesis of cDNAs. Then, by carrying out qRT-PCR, the expression of the induced resistance genes was determined. Depending on reaction time after the treatment, i.e., after 1 day, 7 days, or 14 days, the expression of the obtained induced resistance genes was examined. […]
For the surface treatment (spraying treatment) of pine tree callus, 100 mg of the pine tree callus were dunked in 500 µℓ LM liquid medium and 500 µℓ of 400 µg/mℓ acibenzolar-S-methyl were sprayed (i.e., sprayed 5 times, 100 µℓ for each spraying, 200 µg/mℓ) on the callus surface. Then, the pine callus sprayed with acibenzolar-S-methyl was reacted for 24 hours by shaking at 50 rpm in a 25°C shaking incubator under dark condition. After the completion of the 24-hour reaction, RNAs were extracted from the callus followed by synthesis of cDNAs. Then, by carrying out qRT-PCR, expression of the induced resistance gene was determined.

Compound | Occurrence rate of pine wilt disease: Number of pine trees showing wilt symptoms / Number of pine trees used for the test ([1]; 2 µg/mℓ) | Occurrence rate of pine wilt disease: Number of pine trees showing wilt symptoms / Number of pine trees used for the test ([1]; 20 µg/mℓ) | Occurrence rate of pine wilt disease: Number of pine trees showing wilt symptoms / Number of pine trees used for the test ([1]; 200 µg/mℓ) | Number of pine trees showing wilt symptoms only at growing points of a stem ([1]; 2 µg/mℓ) | Number of pine trees showing wilt symptoms only at growing points of a stem ([1]; 20 µg/mℓ) | Number of pine trees showing wilt symptoms only at growing points of a stem ([1]; 200 µg/mℓ) | Expression of induced resistance gene, Cytochrome_P450 (Cytochrome_P450)
N#Cc1ccccc1NC(=O)c1snc(Cl)c1Cl [ITL, Isotianil] | 2/3 | 2/3 | 1/3 | 1 | 2 | 1 | 0.98
CC/C=C\CC1C(=O)CCC1CC(=O)OC (stereo not shown) [MeJA, Methyl jasmonate] | 3/3 | 2/3 | 2/3 | 1 | 1 | 2 | 0.3
C=CCOC1=NS(=O)(=O)c2ccccc21 [PBZ, Probenzole] | 2/3 | 0/3 | 1/3 | 1 |  | 1 | 1.06
Cc1ccc(NC(=O)c2snnc2C)cc1Cl [TDL, Tiadinil] | 3/3 | 2/3 | 1/3 | 3 | 2 | 1 | 0.91
OCC1=C[C@@H](N[C@H]2C[C@H](CO)[C@@H](O[C@H]3O[C@@H](CO)[C@H](O)[C@@H](O)[C@@H]3O)[C@H](O)[C@H]2O)[C@H](O)[C@@H](O)[C@@H]1O [VMA, Validamycin A] | 2/3 | 1/3 | 2/3 | 2 | 1 | 1 | 1.17
